From patent US20190350907A1, “METHODS AND PHARMACEUTICAL COMPOSITIONS FOR REDUCING CD95- MEDIATED CELL MOTILITY” (INSERM (INSTITUT NATIONAL DE LA SANTÉ ET DE LA RECHERCHE …, priority 2017, published 2019)
“Also recorded” adds a separate entry of the source.

How the values were obtained:
CD95/PLCγ1 interaction = molecular target: T1, CD95/PLCγ1 interaction (Homo sapiens, UniProt P19174); experiment: Renilla luciferase protein-fragment complementation assay (PCA), CD95-CID/PLCγ1-SH3; type: cell-based; conditions: result in words
T1 construct: The PLCγ1-SH3 domain (aa 790-851) (C); expressed in transfected cells; host or cells: HEK293T
T1 sequence (P19174 790-851): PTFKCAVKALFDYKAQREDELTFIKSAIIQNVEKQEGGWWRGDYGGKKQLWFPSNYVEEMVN
Experimental: FIG. 1. […] A. Schematic representation of the protein-fragment complementation assay used with CD95-CID or -DD fused to F2 and PLCγ1-SH3 or FADD-DD fused to F1 to identify inhibitors from the Prestwick library. The Renilla luciferase enzyme was divided into amino-terminal and carboxy-terminal fragments (yellow domains) and fused to the indicated domains. B. Compounds from the Prestwick library were tested against CD95/PLCγ1 or CD95/FADD PCA. […] Inhibition of CD95/FADD interaction is also assessed.
Light emission indicates refolding of the luciferase and reconstitution of enzyme activity through protein/protein interactions. […] Data represent means±SD of three independent experiments. […] Then, the indicated peptides fused with or without the cell-penetrating domain TAT were incubated at the indicated concentrations for 4 hrs and luminescence was assessed. Data represent means±SD of three independent experiments. […].
HEK293T cells were electroporated with 5 μg of DNA using BTM-830 electroporation generator (BTX Instrument Division, Harvard Apparatus) with 10 μg of DNA. Transfected cells were cultured for 24 hrs prior to protein complementation assay analyses as previously described (17). Briefly, transfected cells (10^6) were washed, resuspended in 100 μl PBS and deposited in OptiPlate-96 (PerkinElmer, Waltham, Mass., USA). Coelenterazine-h (5 μM, Sigma) was injected to each well and renilla luciferase activity was monitored for the first 10 seconds using Infinite200Pro (Tecan, Männedorf, Switzerland).
A peptide consisting of the cell-penetrating domain of TAT fused to CID (TAT-CID) binds the SH3 domain of PLCγ1 and thereby, prevents PLCγ1/CD95 interaction and the subsequent induction of the Ca^2+ response (16). […] Briefly, the Renilla luciferase enzyme was divided into two fragments (F1 and F2 fragments). […] Interaction of CD95 with PLCγ1 or FADD allows the reconstitution of RLuc and subsequent light emission (FIG. 1A). The chemical Prestwick library was screened against these PCAs (FIG. 1B). […] These molecules are designated CID inhibitors or CIDINH.

Th17 cells = experiment: CD95-mediated migration / endothelial transmigration of Th17 cells (Boyden chamber); type: cell-based, human; conditions: non-toxic concentrations, 1 hour pre-incubation, Boyden chambers
Experimental: FIG. 3. Drugs inhibit CD95-mediated Ca′ response and cell migration. A. Activated PBLs were loaded with FuraPE3-AM (1 μM) and pre-treated for 1 h with non-toxic concentrations of indicated compounds. T-cells were then stimulated with cl-CD95L (100 ng/mL; arrow). Ratio values (R) were normalized to pre-stimulated values (R0) to yield R/R0 values. Data represent means±the SD. B. Left panel: using Boyden chamber assay, cell migration of parental H9 cells and their counterpart lacking CD95 (CD95-KO) was assessed. Right panel: activated PBLs were pre-incubated in the presence or absence of the indicated drugs for 1 hour using non-toxic concentration and the CD95-mediated cell migration was assessed by Boyden chambers. C. Th17 cells were sorted from blood of healthy donors (peripheral blood mononuclear cell). […] D. Th17 cells were pre-incubated in the presence or absence of the indicated drugs for 1 hour using non-toxic concentration and cell migration was assessed by Boyden chambers. […] To quantify invasion, cells were fixed with methanol and stained with Giemsa. […] For each experiment, invading cells were lysed and absorbance at 560 nm was measured. […] Cell sorting efficiency was evaluated by FACS. […] Transmigrated cells were counted in the lower reservoir by flow cytometry using a standard of 2.5×10^4 fluorescent beads (Flow-count, Beckman Coulter).

[1] = system: Tfh-dependent B cell activation; experiment: Tfh-dependent B-cell maturation co-culture (memory B cells with SEB-stimulated Tfh cells, s-CD95L); type: cell-based; conditions: preincubation of Tfh cells
[2] = system: CD95-mediated Ca2+ signaling pathway in Tfh cells; experiment: CD95-mediated Ca2+ response in Tfh cells; type: cell-based, human; conditions: Example 2; signal described for Th17 and circulating Tfh cells

For O=C(O)c1cc(-c2ccc(F)cc2F)ccc1O [diflunisal, 5-(2,4-difluorophenyl)-2-hydroxybenzoic acid], the “effect on interaction of CD95 with PLCγ1” value (CD95/PLCγ1 interaction) was “efficiently prevented” and the “effect on endothelial transmigration in Th17 cells” value (Th17 cells) was “abrogated”.

With CC(C)c1nc(CN(C)C(=O)N[C@H](C(=O)N[C@@H](Cc2ccccc2)C[C@H](O)[C@H](Cc2ccccc2)NC(=O)OCc2cncs2)C(C)C)cs1 [ritonavir, 1,3-thiazol-5-ylmethyl N-[(2S,3S,5S)-3-hydroxy-5-[[(2S)-3-methyl-2-[[methyl-[(2-propan-2-yl-1,3-thiazol-4-yl)methyl]carbamoyl]amino]butanoyl]amino]-1,6-diphenylhexan-2-yl]carbamate] the “effect on Tfh-dependent B cell activation” value [1] was “blocks”, the “effect on sCD95L-induced Ca2+ response” value [2] was “abrogated” and the “effect on interaction of CD95 with PLCγ1” value (CD95/PLCγ1 interaction) was “efficiently prevented; also recorded: prevents the PLCγ1 recruitment”. The “effect on endothelial transmigration in Th17 cells” value (Th17 cells) was “abrogated”.
